# Measured values taken from patent US8242113B2, “Oxazolidinone derivatives with cyclic amidoxime or cyclic amidrazone pharmaceutical compositions thereof” (Legochem Biosciences, Inc., priority 2008, dated 2012).
# Tests used:
# [1] = test system: methicillin-resistant Staphylococcus aureus (MRSA); experiment: In vitro antibacterial activity, broth microdilution (MIC90); settings: read-out: Antibacterial activity MIC90, MRSA
# Description: (§1) MIC90 measurement was made according to the broth microdilution method based on the CLSI document [Clinical and Laboratory Standards Institute Document.
# (§2) The test compounds in DMSO solution were further diluted 20-fold with sterile distilled water.
# [2] = test system: linezolid- and vancomycin-resistant Enterococcus faecalis (LVRE); experiment: as above; settings: read-out: Antibacterial activity MIC90, LVRE
# Description: as §1, §2
SMILES,MIC90 [1] [µg/mL],MIC [2] [µg/mL]
CC(=O)CN1CCN(c2ccc(N3C[C@H](CNC(C)=O)OC3=O)cc2F)C=N1 [Compound 37],2,8
COC(=S)NC[C@H]1CN(c2ccc(N3C=NN(CC4CC4)CC3)c(F)c2)C(=O)O1 [Compound 67],0.5,4
O=C(NC[C@H]1CN(c2ccc(N3C=NN(C(=O)CO)CC3)c(F)c2)C(=O)O1)C(F)F [Compound 47],2,8
O=CN1CCN(c2ccc(N3C[C@H](Cn4ccnn4)OC3=O)cc2)C=N1 [Compound 99],2,32
CC(C)OC(=S)NC[C@H]1CN(c2ccc(N3C=NN(C=O)CC3)c(F)c2)C(=O)O1 [Compound 55],2,8
CCN1CCN(c2ccc(N3C[C@H](CNC(C)=O)OC3=O)cc2F)C=N1 [Compound 6],2,8
CC(=O)NC[C@H]1CN(c2ccc(N3C=NN(CC(N)=O)CC3)c(F)c2)C(=O)O1 [Compound 25],4,32
C=C(Cl)CN1CCN(c2ccc(N3C[C@H](CNC(C)=O)OC3=O)cc2F)C=N1 [Compound 40],2,8
COC(=S)NC[C@H]1CN(c2ccc(N3C=NN(C)CC3)c(F)c2)C(=O)O1 [Compound 60],0.25,2
C=C(C)CN1CCN(c2ccc(N3C[C@H](CNC(C)=O)OC3=O)cc2F)C=N1 [Compound 39],2,8
CC(=S)NC[C@H]1CN(c2ccc(N3C=NN(C=O)CC3)c(F)c2)C(=O)O1 [Compound 73],0.0625,2
O=CN1CCN(c2ccc(N3C[C@H](CNC(=O)C(F)F)OC3=O)cc2F)C=N1 [Compound 45],1,4
COC(=S)NC[C@H]1CN(c2ccc(N3C=NN(C(=S)OC)CC3)c(F)c2)C(=O)O1 [Compound 72],0.5,2
O=C(NC[C@H]1CN(c2ccc(N3C=NNCC3)c(F)c2)C(=O)O1)C(F)F [Compound 46],2,16
O=CN1CCN(c2ccc(N3C[C@H](CNC(=O)c4ccno4)OC3=O)cc2F)C=N1 [Compound 52],2,16
CC(=O)NC[C@H]1CN(c2ccc(N3C=NN(C(N)=S)CC3)c(F)c2)C(=O)O1 [Compound 29],0.5,4
CC(=O)NC[C@H]1CN(c2ccc(N3C=NN(C(=O)NCCO)CC3)c(F)c2)C(=O)O1 [Compound 15],4,8
CC(=S)NC[C@H]1CN(c2ccc(N3C=NN(CC#N)CC3)c(F)c2)C(=O)O1 [Compound 75],0.25,2
CC(=O)NC[C@H]1CN(c2ccc(N3C=NN(C(=S)OCCO)CC3)c(F)c2)C(=O)O1 [Compound 32],8,32
CC(=O)NC[C@H]1CN(c2ccc(N3C=NOCC3)c(F)c2)C(=O)O1 [Compound 28],2,16
CC(=S)NC[C@H]1CN(c2ccc(N3C=NNCC3)c(F)c2)C(=O)O1 [Compound 74],0.25,2
C#CCN1CCN(c2ccc(N3C[C@H](CNC(=S)OC)OC3=O)cc2F)C=N1 [Compound 63],0.5,4
COC(=S)N1CCN(c2ccc(N3C[C@H](CNC(C)=O)OC3=O)cc2F)C=N1 [Compound 30],1,4

SMILES,MIC90 [1] [µg/mL],MIC [2] [µg/mL]
C=CCN1CCN(c2ccc(N3C[C@H](CNC(C)=O)OC3=O)cc2F)C=N1 [Compound 4],1,8
O=C1O[C@@H](CO)CN1c1ccc(N2C=NNCC2)c(F)c1 [Compound 93],1,32
C#CCN1CCN(c2ccc(N3C[C@H](CNC(=O)C(F)F)OC3=O)cc2F)C=N1 [Compound 49],1,8
O=CN1CCN(c2c(F)cc(N3C[C@H](Cn4ccnn4)OC3=O)cc2F)C=N1 [Compound 103],0.25,16
C#CCN1CCN(c2ccc(N3C[C@H](Cn4ccnn4)OC3=O)cc2F)C=N1 [Compound 84],0.5,16
C#CCN1CCN(c2ccc(N3C[C@H](CNC(=S)C(F)F)OC3=O)cc2F)C=N1 [Compound 78],0.5,4
CC(=O)NC[C@H]1CN(c2ccc(N3C=NN(C(=O)C(F)F)CC3)c(F)c2)C(=O)O1 [Compound 17],1,8
O=CN1CCN(c2ccc(N3C[C@H](COc4ccon4)OC3=O)cc2F)C=N1 [Compound 79],8,> 64
CC(=O)NC[C@H]1CN(c2ccc(N3C=NN(CC(C)O)CC3)c(F)c2)C(=O)O1 (some centres unmarked) [Compound 38],4,8
O=CN1CCN(c2ccc(N3C[C@H](CNC(=O)C(Cl)Cl)OC3=O)cc2F)C=N1 [Compound 51],1,4
CC(=O)NC[C@H]1CN(c2ccc(N3C=NN(C(=O)C4CC4)CC3)c(F)c2)C(=O)O1 [Compound 13],4,16
O=CN1CCN(c2ccc(N3C[C@H](CNc4ccon4)OC3=O)cc2F)C=N1 [Compound 85],0.5,16
CCN1CCN(c2ccc(N3C[C@H](CNC(=O)C(F)F)OC3=O)cc2F)C=N1 [Compound 48],4,16
COC(=S)NC[C@H]1CN(c2ccc(N3C=NN(C=O)CC3)cc2)C(=O)O1 [Compound 97],0.5,8
O=C(CO)N1CCN(c2ccc(N3C[C@H](CNc4ccon4)OC3=O)cc2F)C=N1 [Compound 87],0.5,8
CC(=O)NC[C@H]1CN(c2ccc(N3C=NN(S(N)(=O)=O)CC3)c(F)c2)C(=O)O1 [Compound 20],16,64
CCOC(=S)N1CCN(c2ccc(N3C[C@H](CNC(C)=O)OC3=O)cc2F)C=N1 [Compound 31],1,8
CC(=O)NC[C@H]1CN(c2ccc(N3C=NN(C(=O)N(CCO)CCO)CC3)c(F)c2)C(=O)O1 [Compound 16],128,> 128
CC(=O)NC[C@H]1CN(c2ccc(N3C=NN(C(=S)NCCO)CC3)c(F)c2)C(=O)O1 [Compound 33],2,8
O=CN1CCN(c2ccc(N3C[C@H](CO)OC3=O)cc2F)C=N1 [Compound 92],1,64
O=CN1CCN(c2ccc(N3C[C@H](CNC(=S)C(F)F)OC3=O)cc2F)C=N1 [Compound 77],0.5,4
CC(=O)NC[C@H]1CN(c2ccc(N3C=NNCC3)c(F)c2)C(=O)O1 [Compound 2],2,16
CC(=O)NC[C@H]1CN(c2ccc(N3C=NN(C#N)CC3)c(F)c2)C(=O)O1 [Compound 9],0.5,8

SMILES,MIC90 [1] [µg/mL],MIC [2] [µg/mL]
CC(=O)NC[C@H]1CN(c2ccc(N3C=NN(CC(F)(F)F)CC3)c(F)c2)C(=O)O1 [Compound 8],4,16
O=CN1CCN(c2ccc(N3C[C@H](CNc4ccon4)OC3=O)cc2)C=N1 [Compound 100],0.5,32
COC(=S)NC[C@H]1CN(c2ccc(N3C=NN(CCO)CC3)c(F)c2)C(=O)O1 [Compound 70],1,4
CC(=O)NC[C@H]1CN(c2ccc(N3C=NN(CC#N)CC3)c(F)c2)C(=O)O1 [Compound 7],1,8
COC(=S)NC[C@H]1CN(c2ccc(N3C=NN(C(=O)COC(C)=O)CC3)c(F)c2)C(=O)O1 [Compound 59],0.5,2
CC(=O)NC[C@H]1CN(c2ccc(N3C=NN(C4CCC4)CC3)c(F)c2)C(=O)O1 [Compound 41],2,4
CC(=O)NC[C@H]1CN(c2ccc(N3C=NN(C(N)=O)CC3)c(F)c2)C(=O)O1 [Compound 14],2,8
COC(=S)NC[C@H]1CN(c2ccc(N3C=NN(C4CCC4)CC3)c(F)c2)C(=O)O1 [Compound 68],0.25,2
CC(=O)NC[C@H]1CN(c2ccc(N3C=NN(C(C)=S)CC3)c(F)c2)C(=O)O1 [Compound 34],0.5,4
O=CN1CCN(c2ccc(N3C[C@H](Cn4ccnn4)OC3=O)cc2F)C=N1 [Compound 81],1,16
CC(=O)OCC(=O)N1CCN(c2ccc(N3C[C@H](CNc4ccon4)OC3=O)cc2F)C=N1 [Compound 88],0.5,8
CN1CCN(c2c(F)cc(N3C[C@H](Cn4ccnn4)OC3=O)cc2F)C=N1 [Compound 104],2,32
CCOC(=O)NC[C@H]1CN(c2ccc(N3C=NN(C=O)CC3)c(F)c2)C(=O)O1 [Compound 43],2,32
CN1CCN(c2ccc(N3C[C@H](CNc4ccon4)OC3=O)cc2)C=N1 [Compound 101],1,32
O=CN1CCN(c2ccc(N3C[C@H](CNc4nccs4)OC3=O)cc2F)C=N1 [Compound 80],2,16
CCOC(=O)CN1CCN(c2ccc(N3C[C@H](CNC(=S)OC)OC3=O)cc2F)C=N1 [Compound 69],2,8
C#CCN1CCN(c2ccc(N3C[C@H](CNc4ccon4)OC3=O)cc2F)C=N1 [Compound 91],0.5,8
C=CCN1CCN(c2ccc(N3C[C@H](CNC(=S)OC)OC3=O)cc2F)C=N1 [Compound 62],0.0625,2
CC(=O)NC[C@H]1CN(c2ccc(N3C=NN(C=O)CC3)cc2)C(=O)O1 [Compound 95],1,16
N#CCN1CCN(c2ccc(N3C[C@H](CNC(=O)C(F)F)OC3=O)cc2F)C=N1 [Compound 50],2,16
CCN1CCN(c2ccc(N3C[C@H](CNc4ccon4)OC3=O)cc2F)C=N1 [Compound 90],2,8
